From US20190315814A1, “LANTIBIOTIC VARIANTS AND USES THEREOF” (priority 2016, published 2019)
Values after ≈ are worked out from the molar mass of the structure shown. Like-named read-outs stand apart in the source and are kept apart here.

Assays:
in vitro = conditions: simulated gi fluid
Method: Assay incubation conditions included […] simulated gastric fluid (SGF, USP 39 Test Solution; 2 g/L NaCl, 7 mL/L glacial HCl, pH 1.4) containing 1.75 mg/mL Pepsin (3200-4500 U/mg) mixed with 7.5 μL of 10 mg/mL variant (or positive control, NH2-Met-Arg-Phe-Ala-OH, MRFA, CAS#67368-29-0) for a final concentration of 300 μg/ml variant in a microfuge tube. Samples were incubated at 37° C. and analyzed using HPLC or LC-MS for loss of substrate. The percent remaining, elimination rate constant (Ke), and in vitro protein half-lives were calculated. A control of SGF without enzyme was also run and analyzed in the same manner for each variant.

[1] = system: Clostridium difficile UNT103-1; experiment: Non-cannulated Syrian hamster C. difficile infection model, oral gavage; assay type: in vivo, Golden Syrian hamsters; conditions: for Percent Survival at Day-22: oral gavage TID Days 2-6, vancomycin 20 mg/kg once a day; for Toxin A level at Day-22: first value of A/B cell; for Toxin A level at Day-22 / Toxin B level at Day-22: limit of detection 0.8; for Mean LOG10 CFU/mL of feces homogenates (cecal spore counts) at Day-22: limit of detection 2.40; for Toxin B level at Day-22: second value of A/B cell
Method: (§1) Following the recovery phase, male Golden Syrian hamsters were inoculated with Clostridium difficile UNT103-1 (VA11, non epidemic (cdtB-, REA group J) Curtis Donskey, Cleveland VA Hospital, Cleveland, Ohio). On Day 1, at 24 hrs after infection, all animals received a single subcutaneous injection of clindamycin (10 mg/kg). Test article formulations were administered three times per day (TID), starting on Day 2 at 18 hours after Clindamycin injection, for 5 consecutive days (Days 2 through 6), and followed until Day 22 to assess recurrence. Vancomycin (positive control) was administered once a day at 20 mg/kg on Days 2 through 6. Cecal spore counts and Toxins A and B were determined as described above

[2] = simulated gi fluid
[3] = system: VRE Enterococcus faecalis; conditions: VRE
[4] = system: Clostridium scindens (ATCC 35704)
[5] = system: Lactobacillus acidophilus (CCUG 4356)
[6] = system: Peptostreptococcus anaerobius (ATCC 27337)
[7] = system: Eggerthella lenta (ATCC 27337)
[8] = system: Clostridium difficile UNT103-1; experiment: Second non-cannulated Syrian hamster C. difficile infection model, oral gavage dose range-finding; assay type: in vivo, Golden Syrian hamsters
Method: as §1, with “formulated at 3 to 5 different doses” for “formulations”, “above.” for “above”

[9] = FaSSIF + 1% pancreatin + 3 μg/ml trypsin + 3 μg/ml chymotrypsin half-life

Row | SMILES | half-life (in vitro) | Percent Survival at Day-22 [1] | Toxin A level at Day-22 ([1]; oral gavage) | Mean LOG10 CFU/mL of feces homogenates (cecal spore counts) at Day-22 ([1]; oral gavage) | Toxin B level at Day-22 ([1]; oral gavage) | half-life [2, 9] | half-life ([2]; FaSSIF only half-life) | MIC VRE ATCC 51575 [3] | MIC VRE CCUG 47775 [3] | MIC VRE ATCC 700221 (VRE Enterococcus faecium) | MIC C. scindens [4] | MIC L. acidophilus [5] | MIC P. anaerobius [6] | MIC E. lenta [7] | MIC to H. Pylori without EDTA (Heliobacter pylori) | MIC to H. Pylori with 0.05M EDTA (Heliobacter pylori) | further results
1 | C=C1NC(=O)[C@H](Cc2c[nH]c3ccccc23)NC(=O)[C@H](NC(=O)[C@H](CCCCN)NC(=O)[C@@H](N)[C@@H](C)CC)CSC[C@@H](C(=O)N[C@H]2C(=O)N3CCC[C@H]3C(=O)NCC(=O)N[C@H](C(=O)N[C@@H](C)C(=O)N[C@@H](C)C(=O)NC(=CC)C(=O)NCC(=O)N[C@@H]3CSC[C@@H]4NC(=O)[C@H](Cc5ccc(O)cc5)NC(=O)[C@@H](CS/C=C\NC4=O)NC(=O)[C@H](CC(N)=O)NC(=O)[C@H](Cc4ccccc4)NC3=O)CS[C@H]2C)NC(=O)[C@H](CC(C)C)NC1=O [F1I R13A] | > 24 h | 50% | 147 ng/mL | 4.67 LOG10 CFU/mL | 205.5 ng/mL | > 12 h | > 12 h | 16 µg/mL (≈ 7.46 µM) | 16 µg/mL (≈ 7.46 µM) | 8 µg/mL (≈ 3.73 µM) | 4 µg/mL (≈ 1.86 µM) | 0.5 µg/mL (≈ 0.233 µM) | 1 µg/mL (≈ 0.466 µM) | 2 µg/mL (≈ 0.932 µM) | 8 µg/mL (≈ 3.73 µM) | 8 µg/mL | –
2 | C=C1NC(=O)[C@H](Cc2c[nH]c3ccccc23)NC(=O)[C@H](NC(=O)[C@H](CCCCN)NC(=O)[C@@H](N)[C@@H](C)CC)CSC[C@@H](C(=O)N[C@H]2C(=O)N3CCC[C@H]3C(=O)NCC(=O)N[C@H](C(=O)N[C@@H](C)C(=O)N[C@@H](CC(=O)O)C(=O)NC(=CC)C(=O)NCC(=O)N[C@@H]3CSC[C@@H]4NC(=O)[C@H](Cc5ccc(O)cc5)NC(=O)[C@@H](CS/C=C\NC4=O)NC(=O)[C@H](CC(N)=O)NC(=O)[C@H](Cc4ccccc4)NC3=O)CS[C@H]2C)NC(=O)[C@H](CC(C)C)NC1=O [F1I R13D] | > 24 h | 50% | 648.5 ng/mL | 4.8 LOG10 CFU/mL | 216.6 ng/mL | > 12 h | > 12 h | 32 µg/mL (≈ 14.6 µM) | 32 µg/mL (≈ 14.6 µM) | 32 µg/mL (≈ 14.6 µM) | 8 µg/mL (≈ 3.65 µM) | 2 µg/mL (≈ 0.913 µM) | 1 µg/mL (≈ 0.457 µM) | 2 µg/mL (≈ 0.913 µM) | 8 µg/mL (≈ 3.65 µM) | 8 µg/mL | –
3 | C=C1NC(=O)[C@H](Cc2c[nH]c3ccccc23)NC(=O)[C@H](NC(=O)[C@H](CCCCN)NC(=O)[C@@H](N)[C@@H](C)CC)CSC[C@@H](C(=O)N[C@H]2C(=O)N3CCC[C@H]3C(=O)NCC(=O)N[C@H](C(=O)N[C@@H](C)C(=O)N[C@@H](CC(N)=O)C(=O)NC(=CC)C(=O)NCC(=O)N[C@@H]3CSC[C@@H]4NC(=O)[C@H](Cc5ccccc5)NC(=O)[C@@H](CS/C=C\NC4=O)NC(=O)[C@H](CC(N)=O)NC(=O)[C@H](Cc4ccccc4)NC3=O)CS[C@H]2C)NC(=O)[C@H](CC(C)C)NC1=O [F1I R13N Y20F] | > 24 h | 83% | 5.1 ng/mL | 2.65 LOG10 CFU/mL | 6 ng/mL | > 12 h | > 12 h | 8 µg/mL (≈ 3.68 µM) | 16 µg/mL (≈ 7.36 µM) | 8 µg/mL (≈ 3.68 µM) | 2 µg/mL (≈ 0.921 µM) | 0.5 µg/mL (≈ 0.23 µM) | 0.125 µg/mL (≈ 0.0575 µM) | 0.125 µg/mL (≈ 0.0575 µM) | 8 µg/mL (≈ 3.68 µM) | 4 µg/mL | Efficacy compared with Vancomycin-treated animals ([1]; end of the study at Day 22, oral gavage, in words): equal or superior efficacy; Mean LOG10 CFU/mL of feces homogenates (cecal spore counts) at Day-22 ([8]; 6 mg/Kg oral gavage TID): 5.47 LOG10 CFU/mL; Toxin A level at Day-22 ([8]; 6 mg/Kg oral gavage TID): 215.5 ng/mL; Toxin B level at Day-22 ([8]; 6 mg/Kg oral gavage TID): 242.2 ng/mL; Percent Survival at Day-22 ([8]; 6 mg/Kg oral gavage TID Days 2-6): 0%; Mean LOG10 CFU/mL of feces homogenates (cecal spore counts) at Day-22 ([8]; 20 mg/Kg oral gavage TID): 5.37 LOG10 CFU/mL; Toxin A level at Day-22 ([8]; 20 mg/Kg oral gavage TID): 165.5 ng/mL; Toxin B level at Day-22 ([8]; 20 mg/Kg oral gavage TID): 272.3 ng/mL; Percent Survival at Day-22 ([8]; 20 mg/Kg oral gavage TID Days 2-6): 33%; Mean LOG10 CFU/mL of feces homogenates (cecal spore counts) at Day-22 ([8]; 60 mg/Kg oral gavage TID): 3.18 LOG10 CFU/mL; Toxin A level at Day-22 ([8]; 60 mg/Kg oral gavage TID): 47.6 ng/mL; Toxin B level at Day-22 ([8]; 60 mg/Kg oral gavage TID): 108.7 ng/mL; Percent Survival at Day-22 ([8]; 60 mg/Kg oral gavage TID Days 2-6): 83%
4 | C=C1NC(=O)[C@H](Cc2c[nH]c3ccccc23)NC(=O)[C@H](NC(=O)[C@H](CCCCN)NC(=O)[C@@H](N)[C@@H](C)CC)CSC[C@@H](C(=O)N[C@H]2C(=O)N3CCC[C@H]3C(=O)NCC(=O)N[C@H](C(=O)N[C@@H](C)C(=O)N[C@@H](CC(N)=O)C(=O)NC(=CC)C(=O)NCC(=O)N[C@@H]3CSC[C@@H]4NC(=O)[C@H](Cc5ccc(O)cc5)NC(=O)[C@@H](CS/C=C\NC4=O)NC(=O)[C@H](CC(N)=O)NC(=O)[C@H](Cc4ccccc4)NC3=O)CS[C@H]2C)NC(=O)[C@H](CC(C)C)NC1=O [F1I R13N] | > 24 h | 66% | 138.1 ng/mL | 3.64 LOG10 CFU/mL | 120.2 ng/mL | > 12 h | > 12 h | 16 µg/mL (≈ 7.31 µM) | 16 µg/mL (≈ 7.31 µM) | 32 µg/mL (≈ 14.6 µM) | 2 µg/mL (≈ 0.914 µM) | 0.5 µg/mL (≈ 0.228 µM) | 0.25 µg/mL (≈ 0.114 µM) | 0.5 µg/mL (≈ 0.228 µM) | 8 µg/mL (≈ 3.66 µM) | 8 µg/mL | –
5 | C=C1NC(=O)[C@H](Cc2c[nH]c3ccccc23)NC(=O)[C@H](NC(=O)[C@H](CCCCN)NC(=O)[C@@H](N)CC(C)C)CSC[C@@H](C(=O)N[C@H]2C(=O)N3CCC[C@H]3C(=O)NCC(=O)N[C@H](C(=O)N[C@@H](C)C(=O)N[C@@H](C)C(=O)NC(=CC)C(=O)NCC(=O)N[C@@H]3CSC[C@@H]4NC(=O)[C@H](Cc5ccc(O)cc5)NC(=O)[C@@H](CS/C=C\NC4=O)NC(=O)[C@H](CC(N)=O)NC(=O)[C@H](Cc4ccccc4)NC3=O)CS[C@H]2C)NC(=O)[C@H](CC(C)C)NC1=O [F1L R13A] | > 24 h | 0% | 4532.5 ng/mL | 7.28 LOG10 CFU/mL | 1795.5 ng/mL | > 12 h | > 12 h | 32 µg/mL (≈ 14.9 µM) | 16 µg/mL (≈ 7.46 µM) | 16 µg/mL (≈ 7.46 µM) | 4 µg/mL (≈ 1.86 µM) | 0.5 µg/mL (≈ 0.233 µM) | 0.5 µg/mL (≈ 0.233 µM) | 0.5 µg/mL (≈ 0.233 µM) | 8 µg/mL (≈ 3.73 µM) | 8 µg/mL | –
6 | C=C1NC(=O)[C@H](Cc2c[nH]c3ccccc23)NC(=O)[C@H](NC(=O)[C@H](CCCCN)NC(=O)[C@@H](N)CC(C)C)CSC[C@@H](C(=O)N[C@H]2C(=O)N3CCC[C@H]3C(=O)NCC(=O)N[C@H](C(=O)N[C@@H](C)C(=O)N[C@@H](CC(N)=O)C(=O)NC(=CC)C(=O)NCC(=O)N[C@@H]3CSC[C@@H]4NC(=O)[C@H](Cc5ccc(O)cc5)NC(=O)[C@@H](CS/C=C\NC4=O)NC(=O)[C@H](CC(N)=O)NC(=O)[C@H](Cc4ccccc4)NC3=O)CS[C@H]2C)NC(=O)[C@H](CC(C)C)NC1=O [F1L R13N] | > 24 h | 0% | 5477.8 ng/mL | 7.36 LOG10 CFU/mL | 2189.1 ng/mL | > 12 h | > 12 h | 16 µg/mL (≈ 7.31 µM) | 16 µg/mL (≈ 7.31 µM) | 16 µg/mL (≈ 7.31 µM) | 4 µg/mL (≈ 1.83 µM) | 0.5 µg/mL (≈ 0.228 µM) | 0.25 µg/mL (≈ 0.114 µM) | 0.25 µg/mL (≈ 0.114 µM) | 8 µg/mL (≈ 3.66 µM) | 8 µg/mL | –
